Assay results published in paper PMC8480901 (PLoS ONE, 2021).
“And” between values parts separate entries of the source, which are not always exact repeats. Equal values may be shown once.

Tested on: J774.2 mouse macrophages
Assay: LPS-induced cytokine and chemokine levels in J774.2 mouse macrophage cell supernatant (ELISA)
Type: cell-based
Settings: for CXCL1 % reduction / CXCL1 [pg/mL] Mean / CXCL2 % reduction / CXCL2 [pg/mL] Mean / MMP9 % reduction / MMP9 [pg/mL] Mean: J774.2 cells; for CXCL1 % reduction / CXCL1 [pg/mL] Mean / CXCL2 % reduction / CXCL2 [pg/mL] Mean / MMP9 % reduction / MMP9 [pg/mL] Mean / CCl2, % reduction / CCl2, Mean / GM-CSF % reduction / GM-CSF Mean / IL-1β % reduction / IL-1β Mean / IL-6 % reduction / IL-6 Mean / TNF-α % reduction / TNF-α Mean / CCl2 / CXCL1 / GM-CSF / IL-1β / IL-6 / TNF-α: LPS; for CCl2, % reduction / CCl2, Mean / GM-CSF % reduction / GM-CSF Mean / IL-1β % reduction / IL-1β Mean / IL-6 % reduction / IL-6 Mean / TNF-α % reduction / TNF-α Mean / CCl2 / CXCL1 / GM-CSF / IL-1β / IL-6 / TNF-α: J774.2 supernatant; for CCl2 / CXCL1 / GM-CSF / IL-1β / IL-6 / TNF-α: individual replicate

Q: Which CXCL1 % reduction (compound 0.03 µM) does the source give for `C=C[C@]1(C)C[C@@H](OC(=O)CS[C@@H]2CC[C@@H](N)C[C@H]2O)[C@]2(C)[C@H](C)CC[C@]3(CCC(=O)[C@H]32)[C@@H](C)[C@@H]1O` [Lefamulin] here?
A: -4.29%

Q: And the “CXCL1 [pg/mL] Mean” value (compound 0.03 µM)?
A: 27 pg/mL

Q: What about the CXCL2 % reduction (compound 0.03 µM) of the same compound?
A: 3%

Q: And the “CXCL2 [pg/mL] Mean” value (compound 0.03 µM)?
A: 31653 pg/mL

Q: What about the MMP9 % reduction (compound 0.03 µM) of the same compound?
A: 2.7%

Q: And the “MMP9 [pg/mL] Mean” value (compound 0.03 µM)?
A: 939 pg/mL

Q: And the CXCL1 % reduction (compound 0.1 µM)?
A: 0.477%

Q: What about the “CXCL1 [pg/mL] Mean” value (compound 0.1 µM) of the same compound?
A: 25 pg/mL

Q: And the CXCL2 % reduction (compound 0.1 µM)?
A: 7%

Q: And the “CXCL2 [pg/mL] Mean” value (compound 0.1 µM)?
A: 30382 pg/mL

Q: And the MMP9 % reduction (compound 0.1 µM)?
A: 16%

Q: And the “MMP9 [pg/mL] Mean” value (compound 0.1 µM)?
A: 819 pg/mL

Q: What about the CXCL1 % reduction (compound 0.3 µM) of the same compound?
A: -4.29%

Q: What about the “CXCL1 [pg/mL] Mean” value (compound 0.3 µM) of the same compound?
A: 27 pg/mL

Q: And the CXCL2 % reduction (compound 0.3 µM)?
A: 0.626%

Q: What about the “CXCL2 [pg/mL] Mean” value (compound 0.3 µM) of the same compound?
A: 32419 pg/mL

Q: And the MMP9 % reduction (compound 0.3 µM)?
A: 14%

Q: And the “MMP9 [pg/mL] Mean” value (compound 0.3 µM)?
A: 840 pg/mL

Q: What about the CXCL1 % reduction (compound 1 µM) of the same compound?
A: -0.703%

Q: What about the “CXCL1 [pg/mL] Mean” value (compound 1 µM) of the same compound?
A: 26 pg/mL

Q: And the CXCL2 % reduction (compound 1 µM)?
A: -10%

Q: What about the “CXCL2 [pg/mL] Mean” value (compound 1 µM) of the same compound?
A: 35898 pg/mL

Q: And the MMP9 % reduction (compound 1 µM)?
A: 2.38%

Q: What about the “MMP9 [pg/mL] Mean” value (compound 1 µM) of the same compound?
A: 942 pg/mL

Q: And the CXCL1 % reduction (compound 3 µM)?
A: -7.61%

Q: What about the “CXCL1 [pg/mL] Mean” value (compound 3 µM) of the same compound?
A: 28 pg/mL

Q: And the CXCL2 % reduction (compound 3 µM)?
A: -7%

Q: And the “CXCL2 [pg/mL] Mean” value (compound 3 µM)?
A: 34917 pg/mL

Q: What about the MMP9 % reduction (compound 3 µM) of the same compound?
A: 7%

Q: What about the “MMP9 [pg/mL] Mean” value (compound 3 µM) of the same compound?
A: 900 pg/mL

Q: And the CXCL1 % reduction (compound 10 µM)?
A: -36%

Q: What about the “CXCL1 [pg/mL] Mean” value (compound 10 µM) of the same compound?
A: 35 pg/mL

Q: What about the CXCL2 % reduction (compound 10 µM) of the same compound?
A: -7%

Q: What about the “CXCL2 [pg/mL] Mean” value (compound 10 µM) of the same compound?
A: 34821 pg/mL

Q: And the MMP9 % reduction (compound 10 µM)?
A: 14%

Q: What about the “MMP9 [pg/mL] Mean” value (compound 10 µM) of the same compound?
A: 838 pg/mL

Q: And the CXCL1 % reduction (compound 30 µM)?
A: -238%

Q: What about the “CXCL1 [pg/mL] Mean” value (compound 30 µM) of the same compound?
A: 87 pg/mL

Q: What about the CXCL2 % reduction (compound 30 µM) of the same compound?
A: -16%

Q: What about the “CXCL2 [pg/mL] Mean” value (compound 30 µM) of the same compound?
A: 37862 pg/mL

Q: What about the MMP9 % reduction (compound 30 µM) of the same compound?
A: 60%

Q: What about the “MMP9 [pg/mL] Mean” value (compound 30 µM) of the same compound?
A: 423 pg/mL

Q: And the CXCL1 % reduction (compound 100 µM)?
A: -827%

Q: And the “CXCL1 [pg/mL] Mean” value (compound 100 µM)?
A: 237 pg/mL

Q: What about the CXCL2 % reduction (compound 100 µM) of the same compound?
A: -16%

Q: What about the “CXCL2 [pg/mL] Mean” value (compound 100 µM) of the same compound?
A: 37744 pg/mL

Q: What about the MMP9 % reduction (compound 100 µM) of the same compound?
A: 96%

Q: What about the “MMP9 [pg/mL] Mean” value (compound 100 µM) of the same compound?
A: 91 pg/mL

Q: What about the “IL-6 and IL-1β levels in supernatant” value (J774.2 macrophages) of the same compound?
A: trend toward reduction

Q: What about the “levels of the measured LPS-induced cytokines, chemokines, or MMP-9 in supernatants” value (J774.2 mouse macrophages, concentrations tested (0.03 to 10 μM shown)) of the same compound?
A: little to no reduction

Q: What about the CCl2, % reduction (0.03 µM) of the same compound?
A: 1.79%

Q: What about the “CCl2, Mean” value (0.03 µM) of the same compound?
A: 35400 pg/mL

Q: What about the GM-CSF % reduction (0.03 µM) of the same compound?
A: 52%

Q: And the “GM-CSF Mean” value (0.03 µM)?
A: 672 pg/mL

Q: What about the IL-1β % reduction (0.03 µM) of the same compound?
A: -26%

Q: And the “IL-1β Mean” value (0.03 µM)?
A: 241 pg/mL

Q: And the IL-6 % reduction (0.03 µM)?
A: -14%

Q: And the “IL-6 Mean” value (0.03 µM)?
A: 88112 pg/mL

Q: And the TNF-α % reduction (0.03 µM)?
A: -16%

Q: And the “TNF-α Mean” value (0.03 µM)?
A: 1587 pg/mL

Q: What about the CCl2 (0.03 µM) of the same compound?
A: 33453 pg/mL and 37346.9 pg/mL

Q: And the CXCL1 (0.03 µM)?
A: 25.7 pg/mL and 27.7 pg/mL

Q: And the GM-CSF (0.03 µM)?
A: 625.6 pg/mL and 719.3 pg/mL

Q: What about the IL-1β (0.03 µM) of the same compound?
A: 233.691 pg/mL and 247.723 pg/mL

Q: And the IL-6 (0.03 µM)?
A: 83483 pg/mL and 92741 pg/mL

Q: And the TNF-α (0.03 µM)?
A: 1586.9 pg/mL and 1587.5 pg/mL

Q: And the CCl2, % reduction (0.1 µM)?
A: 8%

Q: What about the “CCl2, Mean” value (0.1 µM) of the same compound?
A: 33260 pg/mL

Q: And the GM-CSF % reduction (0.1 µM)?
A: 50%

Q: What about the “GM-CSF Mean” value (0.1 µM) of the same compound?
A: 691 pg/mL

Q: And the IL-1β % reduction (0.1 µM)?
A: -10%

Q: What about the “IL-1β Mean” value (0.1 µM) of the same compound?
A: 209 pg/mL

Q: What about the IL-6 % reduction (0.1 µM) of the same compound?
A: -11%

Q: What about the “IL-6 Mean” value (0.1 µM) of the same compound?
A: 85917 pg/mL

Q: And the TNF-α % reduction (0.1 µM)?
A: -16%

Q: And the “TNF-α Mean” value (0.1 µM)?
A: 1579 pg/mL

Q: And the CCl2 (0.1 µM)?
A: 30882.1 pg/mL and 35637.1 pg/mL

Q: And the CXCL1 (0.1 µM)?
A: 26.3 pg/mL and 24.7 pg/mL

Q: And the GM-CSF (0.1 µM)?
A: 718.9 pg/mL and 663.8 pg/mL

Q: And the IL-1β (0.1 µM)?
A: 208.032 pg/mL and 210.141 pg/mL

Q: And the IL-6 (0.1 µM)?
A: 86925 pg/mL and 84909 pg/mL

Q: What about the TNF-α (0.1 µM) of the same compound?
A: 1571.9 pg/mL and 1586.9 pg/mL

Q: What about the CCl2, % reduction (0.3 µM) of the same compound?
A: 0.431%

Q: And the “CCl2, Mean” value (0.3 µM)?
A: 35870 pg/mL

Q: And the GM-CSF % reduction (0.3 µM)?
A: 54%

Q: What about the “GM-CSF Mean” value (0.3 µM) of the same compound?
A: 647 pg/mL

Q: And the IL-1β % reduction (0.3 µM)?
A: -6%

Q: What about the “IL-1β Mean” value (0.3 µM) of the same compound?
A: 202 pg/mL

Q: What about the IL-6 % reduction (0.3 µM) of the same compound?
A: -13%

Q: What about the “IL-6 Mean” value (0.3 µM) of the same compound?
A: 87246 pg/mL

Q: And the TNF-α % reduction (0.3 µM)?
A: -8.54%

Q: What about the “TNF-α Mean” value (0.3 µM) of the same compound?
A: 1483 pg/mL

Q: And the CCl2 (0.3 µM)?
A: 32973.5 pg/mL and 38766.3 pg/mL

Q: And the CXCL1 (0.3 µM)?
A: 24.9 pg/mL and 28.5 pg/mL

Q: And the GM-CSF (0.3 µM)?
A: 644.4 pg/mL and 648.8 pg/mL

Q: What about the IL-1β (0.3 µM) of the same compound?
A: 202.166 pg/mL and 201.189 pg/mL

Q: And the IL-6 (0.3 µM)?
A: 86199 pg/mL and 88294 pg/mL
